According to US20220323406A1, “METHODS AND COMPOSITIONS FOR DIFFERENTIATING STEM CELLS” (Massachusetts Institute of Technology, priority 2019, published 2022):

Legend:
ENR+CD organoids = assay: Primary screen: ATP (CellTiter-Glo 3D, CTG) cell number/viability, 2.5-D 384-well ENR+CD organoids; details: primary screen; for Z.CTG: standard z score;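 for all read-outs here: compounds given at plating and again on day 3 over a 6-day differentiation from ENR+CV stem-cell-enriched precursors, ATP measured on day 6, plate median as control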
[1] = test system: ENR+CD organoids (ISC to Paneth cell differentiation); assay: Primary screen: basal (non-stimulated) lysozyme secretion LYZ.NS, 2.5-D 384-well ENR+CD organoid differentiation; type: cell-based, mouse; details: primary screen; for Z.LYZ.NS: standard z score
Source text: (§1) High-throughput screening.

[2] = test system: ENR+CD organoids (ISC to Paneth cell differentiation); assay: Primary screen: CCh-stimulated lysozyme secretion LYZ.S, 2.5-D 384-well ENR+CD organoid differentiation; type: cell-based, mouse; details: primary screen
Source text: as §1

With `COCC[n+]1c2c(n(Cc3cnccn3)c1C)C(=O)c1ccccc1C2=O.[Br-]` [YM155 (Sepantronium Bromide)] the Dose.FC.CTG (ENR+CD organoids; dose 0.08 uM) was 0.222 log2 fold change, the “Z.CTG (standard z score)” value (ENR+CD organoids; dose 0.08 uM) was 0.531 and the Dose.FC.CTG (ENR+CD organoids; dose 0.40 uM) was −0.083 log2 fold change. The “Z.CTG (standard z score)” value (ENR+CD organoids; dose 0.40 uM) was −0.198, the Dose.FC.CTG (ENR+CD organoids; dose 2.00 uM) was −0.460 log2 fold change and the “Z.CTG (standard z score)” value (ENR+CD organoids; dose 2.00 uM) was −1.100. For the same compound, the Dose.FC.CTG (ENR+CD organoids; dose 10.00 uM) was −0.970 log2 fold change, the “Z.CTG (standard z score)” value (ENR+CD organoids; dose 10.00 uM) was −2.316 and the Dose.FC.LYZ.NS ([1]; dose 0.08 uM) was 0.114 log2 fold change. The “Z.LYZ.NS (standard z score)” value ([1]; dose 0.08 uM) was 0.995, the Dose.FC.LYZ.NS ([1]; dose 0.40 uM) was −0.031 log2 fold change and the “Z.LYZ.NS (standard z score)” value ([1]; dose 0.40 uM) was −0.266. For the same compound, the Dose.FC.LYZ.NS ([1]; dose 2.00 uM) was −0.082 log2 fold change, the “Z.LYZ.NS (standard z score)” value ([1]; dose 2.00 uM) was −0.714 and the Dose.FC.LYZ.NS ([1]; dose 10.00 uM) was −0.096 log2 fold change. For the same compound, the “Z.LYZ.NS (standard z score)” value ([1]; dose 10.00 uM) was −0.839, the Dose.FC.LYZ.S ([2]; dose 0.08 uM) was 0.172 log2 fold change and the Dose.FC.LYZ.S ([2]; dose 0.40 uM) was −0.039 log2 fold change. For the same compound, the Dose.FC.LYZ.S ([2]; dose 2.00 uM) was −0.137 log2 fold change and the Dose.FC.LYZ.S ([2]; dose 10.00 uM) was −0.210 log2 fold change.
In the case of `O=C(Oc1cc(S(=O)(=O)c2ccccc2)ccc1[N+](=O)[O-])c1ccc(Cl)cc1` [BTB06584], the Dose.FC.CTG (ENR+CD organoids; dose 0.08 uM) is reported as 0.275 log2 fold change, the “Z.CTG (standard z score)” value (ENR+CD organoids; dose 0.08 uM) is reported as 0.657 and the Dose.FC.CTG (ENR+CD organoids; dose 0.40 uM) is reported as 0.288 log2 fold change. The “Z.CTG (standard z score)” value (ENR+CD organoids; dose 0.40 uM) was 0.688, the Dose.FC.CTG (ENR+CD organoids; dose 2.00 uM) was −0.180 log2 fold change and the “Z.CTG (standard z score)” value (ENR+CD organoids; dose 2.00 uM) was −0.431. The Dose.FC.CTG (ENR+CD organoids; dose 10.00 uM) was 0.199 log2 fold change, the “Z.CTG (standard z score)” value (ENR+CD organoids; dose 10.00 uM) was 0.475 and the Dose.FC.LYZ.NS ([1]; dose 0.08 uM) was 0.091 log2 fold change. The “Z.LYZ.NS (standard z score)” value ([1]; dose 0.08 uM) was 0.795, the Dose.FC.LYZ.NS ([1]; dose 0.40 uM) was 0.025 log2 fold change and the “Z.LYZ.NS (standard z score)” value ([1]; dose 0.40 uM) was 0.214. The Dose.FC.LYZ.NS ([1]; dose 2.00 uM) was 0.024 log2 fold change, the “Z.LYZ.NS (standard z score)” value ([1]; dose 2.00 uM) was 0.206 and the Dose.FC.LYZ.NS ([1]; dose 10.00 uM) was −0.031 log2 fold change. For the same compound, the “Z.LYZ.NS (standard z score)” value ([1]; dose 10.00 uM) was −0.268, the Dose.FC.LYZ.S ([2]; dose 0.08 uM) was 0.222 log2 fold change and the Dose.FC.LYZ.S ([2]; dose 0.40 uM) was 0.042 log2 fold change. The Dose.FC.LYZ.S ([2]; dose 2.00 uM) was 0.039 log2 fold change and the Dose.FC.LYZ.S ([2]; dose 10.00 uM) was 0.019 log2 fold change.
Work on `C=C1C(=O)O[C@@H]2/C=C(\C)CC/C=C(\C)CC[C@@H]12` [Costunolide] yielded a Dose.FC.CTG (ENR+CD organoids; dose 0.08 uM) of −0.029 log2 fold change, a Dose.FC.CTG (ENR+CD organoids; dose 0.40 uM) of 0.121 log2 fold change and a Dose.FC.CTG (ENR+CD organoids; dose 2.00 uM) of 0.050 log2 fold change. The Dose.FC.CTG (ENR+CD organoids; dose 10.00 uM) was 0.008 log2 fold change, the Dose.FC.LYZ.NS ([1]; dose 0.08 uM) was 0.131 log2 fold change and the Dose.FC.LYZ.NS ([1]; dose 0.40 uM) was 0.067 log2 fold change. The Dose.FC.LYZ.NS ([1]; dose 2.00 uM) was −0.018 log2 fold change, the Dose.FC.LYZ.NS ([1]; dose 10.00 uM) was 0.047 log2 fold change and the Z.LYZ.NS ([1]; dose 0.08 uM) was 1.143. It also gave a Z.LYZ.NS ([1]; dose 0.40 uM) of 0.585, a Z.LYZ.NS ([1]; dose 2.00 uM) of −0.157 and a Z.LYZ.NS ([1]; dose 10.00 uM) of 0.408. For the same compound, the Dose.FC.LYZ.S ([2]; dose 0.08 uM) was 0.171 log2 fold change, the Dose.FC.LYZ.S ([2]; dose 0.40 uM) was 0.103 log2 fold change and the Dose.FC.LYZ.S ([2]; dose 2.00 uM) was −0.006 log2 fold change. For the same compound, the Dose.FC.LYZ.S ([2]; dose 10.00 uM) was 0.006 log2 fold change.
In the case of `CC1=C(C(=O)OC2CCCCC2)C(c2ccc([N+](=O)[O-])cc2)C2=C(CC(C)(C)CC2=O)N1` (centres unmarked) [FLI-06], the Dose.FC.CTG (ENR+CD organoids; dose 0.08 uM) is reported as 0.089 log2 fold change, the Dose.FC.CTG (ENR+CD organoids; dose 0.40 uM) is reported as 0.095 log2 fold change and the Dose.FC.CTG (ENR+CD organoids; dose 2.00 uM) is reported as 0.076 log2 fold change. It also gave a Dose.FC.CTG (ENR+CD organoids; dose 10.00 uM) of −0.343 log2 fold change, a Z.CTG (ENR+CD organoids; dose 0.08 uM) of 0.213 and a Z.CTG (ENR+CD organoids; dose 0.40 uM) of 0.226. The Z.CTG (ENR+CD organoids; dose 2.00 uM) was 0.182, the Z.CTG (ENR+CD organoids; dose 10.00 uM) was −0.819 and the Dose.FC.LYZ.NS ([1]; dose 0.08 uM) was 0.050 log2 fold change. It also gave a Dose.FC.LYZ.NS ([1]; dose 0.40 uM) of −0.026 log2 fold change, a Dose.FC.LYZ.NS ([1]; dose 2.00 uM) of −0.054 log2 fold change and a Dose.FC.LYZ.NS ([1]; dose 10.00 uM) of −0.140 log2 fold change. It also gave a Z.LYZ.NS ([1]; dose 0.08 uM) of 0.439, a Z.LYZ.NS ([1]; dose 0.40 uM) of −0.230 and a Z.LYZ.NS ([1]; dose 2.00 uM) of −0.466. For the same compound, the Z.LYZ.NS ([1]; dose 10.00 uM) was −1.216, the Dose.FC.LYZ.S ([2]; dose 0.08 uM) was 0.079 log2 fold change and the Dose.FC.LYZ.S ([2]; dose 0.40 uM) was 0.010 log2 fold change. It also gave a Dose.FC.LYZ.S ([2]; dose 2.00 uM) of −0.077 log2 fold change and a Dose.FC.LYZ.S ([2]; dose 10.00 uM) of −0.170 log2 fold change.
In the case of `Cc1nc(C(=O)NCC(=O)O)c(O)c2ccc(Oc3ccccc3)cc12` [FG-4592], the Dose.FC.CTG (ENR+CD organoids; dose 0.08 uM) is reported as 0.327 log2 fold change, the Dose.FC.CTG (ENR+CD organoids; dose 0.40 uM) is reported as 0.284 log2 fold change and the Dose.FC.CTG (ENR+CD organoids; dose 2.00 uM) is reported as 0.290 log2 fold change. The Dose.FC.CTG (ENR+CD organoids; dose 10.00 uM) was 0.238 log2 fold change, the Dose.FC.LYZ.NS ([1]; dose 0.08 uM) was 0.077 log2 fold change and the Dose.FC.LYZ.NS ([1]; dose 0.40 uM) was 0.170 log2 fold change. It also gave a Dose.FC.LYZ.NS ([1]; dose 2.00 uM) of 0.094 log2 fold change, a Dose.FC.LYZ.NS ([1]; dose 10.00 uM) of 0.030 log2 fold change and a Z.LYZ.NS ([1]; dose 0.08 uM) of 0.673. The Z.LYZ.NS ([1]; dose 0.40 uM) was 1.484, the Z.LYZ.NS ([1]; dose 2.00 uM) was 0.822 and the Z.LYZ.NS ([1]; dose 10.00 uM) was 0.265. It also gave a Dose.FC.LYZ.S ([2]; dose 0.08 uM) of 0.083 log2 fold change, a Dose.FC.LYZ.S ([2]; dose 0.40 uM) of 0.234 log2 fold change and a Dose.FC.LYZ.S ([2]; dose 2.00 uM) of 0.152 log2 fold change. It also gave a Dose.FC.LYZ.S ([2]; dose 10.00 uM) of 0.071 log2 fold change.
